pIC50: −log10 of the molar value.
target: T1, Choline O-acetyltransferase (Homo sapiens, UniProt P28329); assay: Inhibition of Choline Acetyltransferase; settings: read-out: I50
T1 sequence (P28329 whole entry): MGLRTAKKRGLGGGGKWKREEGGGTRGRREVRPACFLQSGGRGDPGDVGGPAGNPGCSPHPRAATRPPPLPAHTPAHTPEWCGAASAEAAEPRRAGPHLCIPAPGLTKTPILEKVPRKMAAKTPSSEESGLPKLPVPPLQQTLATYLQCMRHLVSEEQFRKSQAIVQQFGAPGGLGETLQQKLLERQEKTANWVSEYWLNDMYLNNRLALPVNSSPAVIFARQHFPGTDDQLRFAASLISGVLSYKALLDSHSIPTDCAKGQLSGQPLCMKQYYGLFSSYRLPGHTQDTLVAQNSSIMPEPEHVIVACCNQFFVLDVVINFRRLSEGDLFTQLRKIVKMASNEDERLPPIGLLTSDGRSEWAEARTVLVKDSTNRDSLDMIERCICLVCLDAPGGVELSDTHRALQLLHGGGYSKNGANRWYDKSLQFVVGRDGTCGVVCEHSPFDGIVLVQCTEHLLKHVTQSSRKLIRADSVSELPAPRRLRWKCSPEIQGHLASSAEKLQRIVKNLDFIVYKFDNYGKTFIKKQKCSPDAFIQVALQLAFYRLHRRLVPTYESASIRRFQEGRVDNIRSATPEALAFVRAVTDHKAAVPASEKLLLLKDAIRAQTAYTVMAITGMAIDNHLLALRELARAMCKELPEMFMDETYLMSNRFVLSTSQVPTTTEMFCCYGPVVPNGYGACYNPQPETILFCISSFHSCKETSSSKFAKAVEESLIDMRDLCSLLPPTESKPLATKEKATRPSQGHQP

Structure (SMILES)	pIC50
C[n+]1ccc(/C=C/c2cc3ccccc3c3ccccc23)cc1	< 4.00
Cc1c[n+](C)ccc1/C=C/c1ccccc1	5.30
COc1ccc(/C=C/c2cc[n+](C)cc2)c2ccccc12	< 4.00
C[n+]1ccc(/C=C/c2ccccc2)c2ccccc21	5.46
C/C(=C\c1ccccc1)c1cc[n+](C)cc1	< 4.00
C[n+]1ccc(/N=C/c2cccc3ccccc23)cc1	< 4.00
Cc1c[n+](C)ccc1/C=C/c1cccc2ccccc12	6.40
C[n+]1ccc(/C=N/c2cccc3ccccc23)cc1	5.82

The next lines start with the values.

pIC50	Structure (SMILES)
6.40	C[n+]1ccc(/C=C/c2cccc3ccccc23)cc1
4.87	C[n+]1ccc(/C=C/c2ccccc2)cc1
5.64	C[n+]1ccc(/C=C/c2cccc(Cl)c2)cc1
4.72	CCc1c[n+](C)ccc1/C=C/c1ccccc1
4.55	C[n+]1ccc(/C=C/c2ccccc2Cl)cc1

— ChEMBL document CHEMBL1127467, “Molecular modeling studies of some choline acetyltransferase inhibitors” (J Med Chem, 1994)
